# In US9695155B2, “Herbicidal substituted pyrimidinyloxy benzene compounds” (E. I. DU PONT DE NEMOURS AND COMPANY, priority 2013, dated 2017):
# Key:
# Heteranthera limosa = test: Test B flooded paddy test; format: in vivo; conditions: Flood, 250 g ai/ha, 0 to 100 scale where 0 is no effect and 100 is complete control; for pest or weed control at 250 g/ha: Heteranthera limosa, read-out: Plant response rating, Ducksalad
# Procedure, shortened: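 Compound added straight to paddy water, with pots kept flooded 3 cm above soil, on plants grown to the 2-leaf stage. Visual scoring 0-100 (100 = complete control) against untreated controls after 13 to 15 greenhouse days.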
# giant foxtail [1] = test: Test A postemergence; format: in vivo, Setaria faberii; conditions: for pest or weed control at 125 g/ha / pest or weed control at 500 g/ha: Setaria faberi, post-emergence, 240 h; for pest or weed control at 125 g/ha: read-out: Plant response rating, Foxtail, Giant; for pest or weed control at 500 g/ha: read-out: Plant response rating Foxtail, Giant
# Procedure, shortened: (§1)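 Compounds in non-phytotoxic solvent with surfactant applied as soil spray preemergence, or postemergence to plants 2-10 cm at one- to two-leaf stage, in loam/sand. After approximately 10 days in greenhouse, injury rated visually versus untreated controls, 0 (no effect) to 100 (complete control).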
# morningglory = test: Test A postemergence; format: in vivo, Ipomoea spp.; conditions: for pest or weed control at 125 g/ha / pest or weed control at 500 g/ha: Ipomoea, post-emergence, 240 h; for pest or weed control at 125 g/ha: read-out: Plant response rating, Morningglory; for pest or weed control at 500 g/ha: read-out: Plant response rating Morningglory
# Procedure, shortened: as §1
# wheat = test: Test A preemergence; format: in vivo, Triticum aestivum
# Procedure, shortened: as §1
# corn = test: Test C preemergence; format: in vivo, Zea mays
# Excerpt: (§2) Seeds of plant species selected from blackgrass (Alopecurus myosuroides), Italian ryegrass (Lolium multiflorum), wheat, winter (winter wheat, Triticum aestivum), galium (catchweed bedstraw, Galium aparine), corn (Zea mays), large (Lg) crabgrass (Digitaria sanguinalis), giant foxtail (Setaria faberii), johnsongrass (Sorghum halepense), lambsquarters (Chenopodium album), morningglory (Ipomoea coccinea), yellow nutsedge (Cyperus esculentus), pigweed (Amaranthus retroflexus), ragweed (common ragweed, Ambrosia elatior), soybean (Glycine max), barnyardgrass (Echinochloa crus-galli), oilseed rape (Brassica napus), waterhemp (common waterhemp, Amaranthus rudis), kochia (Kochia scoparia), wild oat (Avena fatua), surinam grass (Brachiaria decumbens), foxtail, green (green foxtail, Setaria viridis), goosegrass (Eleusine indica), bromegrass, downy (downy bromegrass, Bromus tectorum), nightshade (eastern black nightshade, Solanum ptycanthum), cocklebur (common cocklebur, Xanthium strumarium), cupgrass, woolly (woolly cupgrass, Eriochloa villosa), bermudagrass (Cynodon dactylon), sunflower, (common oilseed sunflower, Helianthus annuus), Russian thistle (Salsola kali), and velvetleaf (Abutilon theophrasti) were planted into a blend of loam soil and sand and treated preemergence with test chemicals formulated in a non-phytotoxic solvent mixture which included a surfactant.
# (§3) At the same time, plants selected from these crop and weed species and also barley, winter (winter barley, Hordeum vulgare), windgrass (Apera spica-venti), chickweed (common chickweed, Stellaria media), deadnettle (henbit deadnettle, Lamium amplexicaule), and canarygrass (littleseed canarygrass, Phalaris minor) were planted in pots containing Redi-Earth® planting medium (Scotts Company, 14111 Scottslawn Road, Marysville, Ohio 43041) comprising spaghnum peat moss, vermiculite, wetting agent and starter nutrients and treated with postemergence applications of test chemicals formulated in the same manner. Plants ranged in height from 2 to 18 cm (1- to 4-leaf stage) for postemergence treatments. Treated plants and controls were maintained in a greenhouse for 13 to 15 days, after which time all species were compared to controls and visually evaluated. Plant response ratings, summarized in Table C, are based on a scale of 0 to 100 where 0 is no effect and 100 is complete control. A dash (-) response means no test result.
# johnsongrass = test: Test C postemergence; format: in vivo, Sorghum halepense; conditions: for Plant response rating (0 to 100), Johnsongrass: postemergence; for Plant response rating, Johnsongrass: Postemergence, scale 0 to 100 (0 no effect, 100 complete control)
# Excerpt: as §2, §3
# giant foxtail [2] = test: Test C preemergence; format: in vivo, Setaria faberii
# Excerpt: as §2, §3
# ragweed = test: Test C postemergence; format: in vivo, Ambrosia elatior; conditions: for Plant response rating (0 to 100), Ragweed: postemergence; for Plant response rating, Ragweed: Postemergence, scale 0 to 100 (0 no effect, 100 complete control)
# Excerpt: as §2, §3
# [3] = 125 g ai/ha, 0 to 100 scale where 0 is no effect and 100 is complete control
# [4] = 500 g ai/ha, 0 to 100 scale, 0 no effect, 100 complete control
# [5] = 500 g ai/ha, 0 to 100 scale, 0 no effect, 100 complete control, approx. 10 days
# [6] = 62 g ai/ha, preemergence, scale 0 (no effect) to 100 (complete control)
# [7] = 125 g ai/ha, preemergence, scale 0 (no effect) to 100 (complete control)
# [8] = 250 g ai/ha, preemergence, scale 0 (no effect) to 100 (complete control)
# [9] = Preemergence, 31 g ai/ha, scale 0 to 100, 0 no effect, 100 complete control
# [10] = Triticum aestivum, pre-emergence, 240 h, 500 g ai/ha, 0 to 100 scale, 0 no effect, 100 complete control, approx. 10 days, read-out: Wheat plant response rating
Structure (SMILES),"Plant response rating, Ducksalad (Heteranthera limosa)","Plant response rating, Foxtail, Giant (giant foxtail [1]; [3])","Plant response rating, Foxtail, Giant (giant foxtail [1]; [4])","Plant response rating, Morningglory (morningglory; [3])","Plant response rating, Morningglory (morningglory; [4])",Wheat plant response rating (wheat; [3]),Wheat plant response rating (wheat; [5]),pest or weed control at 250 g/ha (Heteranthera limosa) [%],pest or weed control at 125 g/ha (giant foxtail [1]; [3]) [%],pest or weed control at 500 g/ha (giant foxtail [1]; [4]) [%],pest or weed control at 125 g/ha (morningglory; [3]) [%],pest or weed control at 500 g/ha (morningglory; [4]) [%],plant injury at 500 g/ha (wheat; [10]) [%],further results
Clc1cnc(Oc2ccccc2-n2cc(Cl)cn2)nc1 [Compound 3],90,30,90,10,70,0,10,–,–,–,–,–,–,–
FC(F)(F)c1cnn(-c2ccccc2Oc2ncc(Cl)cn2)c1 [Compound 16],90,100,100,90,100,20,60,–,–,–,–,–,–,"Corn plant response rating (corn; [6]): 15; Corn plant response rating (corn; [7]): 25; Corn plant response rating (corn; [8]): 35; Plant response rating, Corn (corn; [9]): 0; Plant response rating (0 to 100), Johnsongrass (johnsongrass; 125 g ai/ha): 10; Plant response rating (0 to 100), Johnsongrass (johnsongrass; 250 g ai/ha): 10; Plant response rating, Johnsongrass (johnsongrass; 31 g ai/ha, 13 to 15 days): 0; Plant response rating, Johnsongrass (johnsongrass; 62 g ai/ha): 5; Foxtail, Giant plant response rating (giant foxtail [2]; [6]): 98; Foxtail, Giant plant response rating (giant foxtail [2]; [7]): 100; Foxtail, Giant plant response rating (giant foxtail [2]; [8]): 100; Plant response rating, Foxtail, Giant (giant foxtail [2]; [9]): 95; Plant response rating (0 to 100), Ragweed (ragweed; 125 g ai/ha): 40; Plant response rating (0 to 100), Ragweed (ragweed; 250 g ai/ha): 90; Plant response rating, Ragweed (ragweed; 31 g ai/ha, 13 to 15 days): 15; Plant response rating, Ragweed (ragweed; 62 g ai/ha): 30"
"FC(F)(F)c1ccn(-c2ccccc2Oc2ncc(Cl)cn2)n1 [Compound 2, 5-chloro-2-[2-[3-(trifluoromethyl)-1H-pyrazol-1-yl]phenoxy]pyrimidine]",–,–,–,–,–,–,–,45,10,80,30,70,0,"plant injury at 125 g/ha (wheat; Triticum aestivum, pre-emergence, 240 h, 125 g ai/ha, 0 to 100 scale where 0 is no effect and 100 is complete control, read-out: Wheat plant response rating): 0%"
"FC(F)(F)c1cnn(-c2ccccc2Oc2ncc(Br)cn2)c1 [Compound 18, 5-bromo-2-[2-[4-(trifluoromethyl)-1H-pyrazol-1-yl]phenoxy]pyrimidine]",–,–,–,–,–,–,–,90,80,100,60,100,70,"plant injury at 62 g/ha (corn; Zea mays, pre-emergence, 62 g ai/ha, preemergence, scale 0 (no effect) to 100 (complete control), read-out: Corn plant response rating): 10%; plant injury at 125 g/ha (corn; Zea mays, pre-emergence, 125 g ai/ha, preemergence, scale 0 (no effect) to 100 (complete control), read-out: Corn plant response rating): 10%; plant injury at 250 g/ha (corn; Zea mays, pre-emergence, 250 g ai/ha, preemergence, scale 0 (no effect) to 100 (complete control), read-out: Corn plant response rating): 35%; Corn plant response rating (crop injury, 0 = no effect, 100 = complete kill) at 31 g/ha (corn; Zea mays, pre-emergence, Preemergence, 31 g ai/ha, scale 0 to 100, 0 no effect, 100 complete control): 0%; pest or weed control at 62 g/ha (giant foxtail [2]; Setaria faberi, pre-emergence, 62 g ai/ha, preemergence, scale 0 (no effect) to 100 (complete control), read-out: Foxtail, Giant plant response rating): 100%; pest or weed control at 125 g/ha (giant foxtail [2]; Setaria faberi, pre-emergence, 125 g ai/ha, preemergence, scale 0 (no effect) to 100 (complete control), read-out: Foxtail, Giant plant response rating): 100%; pest or weed control at 250 g/ha (giant foxtail [2]; Setaria faberi, pre-emergence, 250 g ai/ha, preemergence, scale 0 (no effect) to 100 (complete control), read-out: Foxtail, Giant plant response rating): 100%; pest or weed control at 31 g/ha (giant foxtail [2]; Setaria faberi, pre-emergence, Preemergence, 31 g ai/ha, scale 0 to 100, 0 no effect, 100 complete control, read-out: Plant response rating, Foxtail, Giant): 65%; Plant response rating, Wheat (wheat; [3]): 0"
